For one series, the system named is FLT3. The series is described as follows: FLT3 enzymatic assay. Format: biochemical. A digest of the protocol: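 Kinase reaction at room temperature in HEPES 50 mM pH 7.0 with 10 mM MgCl2, 1 mM DTT: 0.011 nM FLT3, 1 mM ATP, 500 nM biotinylated TK substrate, 0.5% DMSO. After 60 min, HTRF read as 665/620 nm ratio; IC50 from fit of percent control activity versus log concentration.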

Series [1] is described as follows: In vitro intrinsic clearance. Type of series: in vitro ADME. The settings on record: human liver microsomes, 1 μM. In outline: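 Compound at 1 μM was incubated at 37° C with human liver microsomes (0.5 mg protein/mL) and 2 mM NADPH in pH 7.4 phosphate buffer, sampled at 0–30 min and analysed by LC-MS/MS. CLint was derived from t1/2 of depletion and scaled to human hepatic clearance with the well-stirred model (Q 20 mL·min^−1·kg^−1).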
For orientation: Liver microsomes are a subcellular fraction often used to study metabolism.

In series [2] the target is TRKA (Homo sapiens, UniProt P04629). The series is described as follows: TRKA enzymatic assay. The settings on record: 1 mM ATP. Format: biochemical. A digest of the protocol: (§1)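 The reaction mix held 0.58 nM TRKA, 1 mM ATP and 500 nM biotinylated TK substrate in 50 mM HEPES pH 7.0 with 10 mM MgCl2, 1 mM DTT and 0.5% DMSO, run 60 min at room temperature. Product was detected by TR-FRET as the 665/620 nm ratio. IC50 was fitted from % control activity versus log concentration, using DMSO-only and no-ATP wells as controls.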

In series [3] the test system is TRKA. The series is described as follows: TRKA enzymatic assay. Type of series: biochemical. A digest of the protocol:
as §1

The subject of series [4] is STAT5 (Tyr694) phosphorylation in SET-2 cells. The series is described as follows: STAT5 (Tyr694) phosphorylation cell based assay. The conditions noted are these: Homo sapiens, pSTAT5, 2 hours, read-out: SET2 IC50. In outline:
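SET-2 cells (7×10^6 cells/mL, RPMI 10% FBS, 0.5% DMSO) treated with compound 2 h at 37 °C, then lysed 90 min at RT. Phospho-STAT5 (Tyr694) detected by HTRF sandwich antibodies after 24 h at RT, 665/620 ratio. IC50 from percent control activity versus log concentration, DMSO and high-concentration control compound as references.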

Bounds are passed on as bounds.

Chain of TRKA (Homo sapiens, UniProt P04629) (P04629 33-796, species assumed): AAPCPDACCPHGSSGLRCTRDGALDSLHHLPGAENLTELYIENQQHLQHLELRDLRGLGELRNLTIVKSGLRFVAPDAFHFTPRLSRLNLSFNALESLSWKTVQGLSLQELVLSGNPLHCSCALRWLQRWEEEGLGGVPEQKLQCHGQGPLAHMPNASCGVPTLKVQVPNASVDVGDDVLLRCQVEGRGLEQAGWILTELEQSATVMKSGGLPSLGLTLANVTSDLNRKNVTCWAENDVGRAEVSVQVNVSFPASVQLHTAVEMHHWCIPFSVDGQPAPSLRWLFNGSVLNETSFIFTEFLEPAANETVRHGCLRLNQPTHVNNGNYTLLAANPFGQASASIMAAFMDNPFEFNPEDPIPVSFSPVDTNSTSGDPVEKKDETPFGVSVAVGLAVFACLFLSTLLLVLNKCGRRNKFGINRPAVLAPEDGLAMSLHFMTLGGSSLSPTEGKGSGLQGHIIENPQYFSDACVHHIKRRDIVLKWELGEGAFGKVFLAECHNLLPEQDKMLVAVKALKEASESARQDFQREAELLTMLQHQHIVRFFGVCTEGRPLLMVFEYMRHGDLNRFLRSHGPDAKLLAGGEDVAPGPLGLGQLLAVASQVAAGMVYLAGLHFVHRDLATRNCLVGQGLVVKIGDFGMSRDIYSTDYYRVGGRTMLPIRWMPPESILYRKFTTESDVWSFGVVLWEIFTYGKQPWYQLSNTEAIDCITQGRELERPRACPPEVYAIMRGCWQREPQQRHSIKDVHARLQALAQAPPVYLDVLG

As for `[2H]C([2H])([2H])n1ncc2cc(-c3c(-c4cn(C([2H])([2H])C([2H])([2H])[2H])nc4F)[nH]c4ncc5c(c34)n([C@@H]3CC[C@@H](NC(=O)OC)C3)c(=O)n5C([2H])([2H])[2H])ccc21` [Example 15, Methyl ((1R,3R)-3-(7-(1-(ethyl-d5)-3-fluoro-1H-pyrazol-4-yl)-3-(methyl-d3)-8-(1-(methyl-d3)-1H-indazol-5-yl)-2-oxo-3,6-dihydroimidazo[4,5-d]pyrrolo[2,3-b]pyridin-1(2H)-yl)cyclopentyl)carbamate], in the series with FLT3, the “Selectivity FLT3/JH2 V617F” value is given as “***** (selectivity of >5000-fold to ≤12500-fold)”. Further, in series [1], the h-IntCL entry is recorded as “‡ ‡ (h-IntCL of ≥0.7 L/h/kg to ≤1 L/h/kg)”. The IC50 (usually the concentration needed to halve the response being measured) is 1250 to 2500 nM against TRKA [2] and at most 300 nM in series [4]. For the same compound, in the series on TRKA [3], the “Selectivity TRKA/JH2 V617F” value is reported as “****** (selectivity of >12500-fold)”.

As for `[2H]C([2H])([2H])n1cc(-c2[nH]c3ncc4c(c3c2-c2ccc3c(cnn3CC(F)F)c2)n([C@@H]2CC[C@@H](NC(=O)OC)C2)c(=O)n4C)c(F)n1` [Example 18, Methyl ((1R,3R)-3-(8-(1-(2,2-difluoroethyl)-1H-indazol-5-yl)-7-(3-fluoro-1-(methyl-d3)-1H-pyrazol-4-yl)-3-methyl-2-oxo-3,6-dihydroimidazo[4,5-d]pyrrolo[2,3-b]pyridin-1(2H)-yl)cyclopentyl)carbamate], in the series with FLT3, the “Selectivity FLT3/JH2 V617F” value is “****** (selectivity of >12500-fold)”. For the same compound, the h-IntCL result in series [1] was “‡ ‡ (h-IntCL of ≥0.7 L/h/kg to ≤1 L/h/kg)”. Moreover, the figures for the IC50 (on TRKA [2]; in series [4]) were over 2500 nM and at most 300 nM, respectively. For the same compound, the “Selectivity TRKA/JH2 V617F” value with TRKA [3] was “****** (selectivity of >12500-fold)”.

Regarding `COC(=O)N[C@@H]1CC[C@@H](n2c(=O)n(C)c3cnc4[nH]c(-c5cn(C)nc5OC)c(-c5ccccc5)c4c32)C1` [Example 2, Methyl ((1R,3R)-3-(7-(3-methoxy-1-methyl-1H-pyrazol-4-yl)-3-methyl-2-oxo-8-phenyl-3,6-dihydroimidazo[4,5-d]pyrrolo[2,3-b]pyridin-1(2H)-yl)cyclopentyl)carbamate], the “Selectivity FLT3/JH2 V617F” value in the series with FLT3 is given as “**** (selectivity of >1750-fold to ≤5000-fold)”. Moreover, in series [1], the h-IntCL entry is “‡ ‡ (h-IntCL of ≥0.7 L/h/kg to ≤1 L/h/kg)”. For the same compound, the half-maximal inhibitory concentration (IC50) was over 2500 nM against TRKA [2] and 300 to 800 nM in series [4]. Moreover, the “Selectivity TRKA/JH2 V617F” value with TRKA [3] is “**** (selectivity of >1750-fold to ≤5000-fold)”.

On to `COC(=O)N[C@@H]1CC[C@@H](n2c(=O)n(C)c3cnc4[nH]c(-c5cn(C)nc5OC)c(-c5ccc(F)cc5)c4c32)C1` [Example 1, Methyl ((1R,3R)-3-(8-(4-fluorophenyl)-7-(3-methoxy-1-methyl-1H-pyrazol-4-yl)-3-methyl-2-oxo-3,6-dihydroimidazo[4,5-d]pyrrolo[2,3-b]pyridin-1(2H)-yl)cyclopentyl)carbamate], for which, in the series on FLT3, the “Selectivity FLT3/JH2 V617F” value is “**** (selectivity of >1750-fold to ≤5000-fold)”. In addition, the h-IntCL entry in series [1] is recorded as “‡ ‡ (h-IntCL of ≥0.7 L/h/kg to ≤1 L/h/kg)”. Also, the IC50 against TRKA [2] was 1250 to 2500 nM; in series [4], over 800 nM. Also, the “Selectivity TRKA/JH2 V617F” value in the series on TRKA [3] is “** (selectivity of >500-fold to ≤1500-fold)”.

As for `[2H]C([2H])([2H])Oc1ccc(-c2c(-c3cn(C([2H])([2H])[2H])nc3F)[nH]c3ncc4c(c23)n([C@@H]2CC[C@@H](NC(=O)OC)C2)c(=O)n4C([2H])([2H])[2H])cc1` [Example 9, Methyl ((1R,3R)-3-(7-(3-fluoro-1-(methyl-d3)-1H-pyrazol-4-yl)-8-(4-(methoxy-d3)phenyl)-3-(methyl-d3)-2-oxo-3,6-dihydroimidazo[4,5-d]pyrrolo[2,3-b]pyridin-1(2H)-yl)cyclopentyl)carbamate], the “Selectivity FLT3/JH2 V617F” value with FLT3 was “***** (selectivity of >5000-fold to ≤12500-fold)”. Also, in series [1], the h-IntCL result is “‡ ‡ (h-IntCL of ≥0.7 L/h/kg to ≤1 L/h/kg)”. The IC50 is 1250 to 2500 nM at TRKA [2] and at most 300 nM in series [4]. Besides, in the series on TRKA [3], the “Selectivity TRKA/JH2 V617F” value is given as “***** (selectivity of >5000-fold to ≤12500-fold)”.

For `[2H]C([2H])([2H])n1cc(-c2[nH]c3ncc4c(c3c2-c2ccc3c(c2)COC3(C)C)n([C@@H]2CC[C@@H](NC(=O)OC)C2)c(=O)n4C)c(F)n1` [Example 11, Methyl ((1R,3R)-3-(8-(1,1-dimethyl-1,3-dihydroisobenzofuran-5-yl)-7-(3-fluoro-1-(methyl-d3)-1H-pyrazol-4-yl)-3-methyl-2-oxo-3,6-dihydroimidazo[4,5-d]pyrrolo[2,3-b]pyridin-1(2H)-yl)cyclopentyl)carbamate], the “Selectivity FLT3/JH2 V617F” value with FLT3 is “****** (selectivity of >12500-fold)”. Further, the h-IntCL result in series [1] is reported as “‡ ‡ (h-IntCL of ≥0.7 L/h/kg to ≤1 L/h/kg)”. Besides, the IC50 against TRKA [2] is over 2500 nM; in series [4] it was at most 300 nM. The “Selectivity TRKA/JH2 V617F” value with TRKA [3] is “****** (selectivity of >12500-fold)”.

As for `COc1nn(C)cc1-c1[nH]c2ncc3c(c2c1-c1ccc2c(cnn2C)c1)n(C1CCOCC1)c(=O)n3C` [A, reference compound], in the series on FLT3, the “Selectivity FLT3/JH2 V617F” value is listed as “* (selectivity of ≤500-fold)”. For the same compound, the h-IntCL result in series [1] is recorded as “‡ ‡ ‡ (h-IntCL of >1 L/h/kg)”. Further, the IC50 against TRKA [2] was 1250 to 2500 nM; in series [4], over 800 nM. Also, the “Selectivity TRKA/JH2 V617F” value in the series with TRKA [3] is reported as “** (selectivity of >500-fold to ≤1500-fold)”.

As to `[2H]C([2H])([2H])n1cc(-c2[nH]c3ncc4c(c3c2-c2ccc3c(cnn3C(C)C)c2)n([C@@H]2CC[C@@H](NC(=O)OC)C2)c(=O)n4C)c(F)n1` [Example 16, Methyl ((1R,3R)-3-(7-(3-fluoro-1-(methyl-d3)-1H-pyrazol-4-yl)-8-(1-isopropyl-1H-indazol-5-yl)-3-methyl-2-oxo-3,6-dihydroimidazo[4,5-d]pyrrolo[2,3-b]pyridin-1(2H)-yl)cyclopentyl)carbamate], in the series with FLT3, the “Selectivity FLT3/JH2 V617F” value was “***** (selectivity of >5000-fold to ≤12500-fold)”. Moreover, the h-IntCL result in series [1] is recorded as “‡ ‡ (h-IntCL of ≥0.7 L/h/kg to ≤1 L/h/kg)”. Moreover, the figures for the IC50 (against TRKA [2]; in series [4]) were over 2500 nM and at most 300 nM, respectively. Besides, the “Selectivity TRKA/JH2 V617F” value in the series on TRKA [3] was “****** (selectivity of >12500-fold)”.

As to `[2H]C([2H])([2H])n1cc(-c2[nH]c3ncc4c(c3c2-c2ccc3c(cnn3CC(F)F)c2)n([C@@H]2CC[C@@H](NC(=O)OC)C2)c(=O)n4C([2H])([2H])[2H])c(F)n1` [Example 14, Methyl ((1R,3R)-3-(8-(1-(2,2-difluoroethyl)-1H-indazol-5-yl)-7-(3-fluoro-1-(methyl-d3)-1H-pyrazol-4-yl)-3-(methyl-d3)-2-oxo-3,6-dihydroimidazo[4,5-d]pyrrolo[2,3-b]pyridin-1(2H)-yl)cyclopentyl)carbamate], in the series with FLT3, the “Selectivity FLT3/JH2 V617F” value is listed as “****** (selectivity of >12500-fold)”. Further, the h-IntCL entry in series [1] is “‡ ‡ (h-IntCL of ≥0.7 L/h/kg to ≤1 L/h/kg)”. Also, the IC50 was over 2500 nM against TRKA [2] and at most 300 nM in series [4]. Besides, the “Selectivity TRKA/JH2 V617F” value in the series with TRKA [3] is “****** (selectivity of >12500-fold)”.

In the case of `[2H]C([2H])([2H])n1c(=O)n([C@@H]2CC[C@@H](NC(=O)OC)C2)c2c3c(-c4ccc5c(c4)COC5(C)C)c(-c4cn(C([2H])([2H])C([2H])([2H])[2H])nc4F)[nH]c3ncc21` [Example 19, Methyl ((1R,3R)-3-(8-(1,1-dimethyl-1,3-dihydroisobenzofuran-5-yl)-7-(1-(ethyl-d5)-3-fluoro-1H-pyrazol-4-yl)-3-(methyl-d3)-2-oxo-3,6-dihydroimidazo[4,5-d]pyrrolo[2,3-b]pyridin-1(2H)-yl)cyclopentyl)carbamate], in the series with FLT3, the “Selectivity FLT3/JH2 V617F” value is listed as “****** (selectivity of >12500-fold)”. Also, the h-IntCL entry in series [1] is listed as “‡ ‡ (h-IntCL of ≥0.7 L/h/kg to ≤1 L/h/kg)”. For the same compound, the results for the IC50 (against TRKA [2]; in series [4]) were over 2500 nM and at most 300 nM, respectively. Moreover, the “Selectivity TRKA/JH2 V617F” value in the series with TRKA [3] is given as “****** (selectivity of >12500-fold)”.

Regarding `[2H]C([2H])([2H])n1cc(-c2[nH]c3ncc4c(c3c2-c2ccc3c(c2)COC3(C)C)n([C@@H]2CC[C@@H](NC(=O)OC)C2)c(=O)n4C([2H])([2H])[2H])c(F)n1` [Example 8, Methyl ((1R,3R)-3-(8-(1,1-dimethyl-1,3-dihydroisobenzofuran-5-yl)-7-(3-fluoro-1-(methyl-d3)-1H-pyrazol-4-yl)-3-(methyl-d3)-2-oxo-3,6-dihydroimidazo[4,5-d]pyrrolo[2,3-b]pyridin-1(2H)-yl)cyclopentyl)carbamate], in the series on FLT3, the “Selectivity FLT3/JH2 V617F” value is “****** (selectivity of >12500-fold)”. Moreover, the h-IntCL entry in series [1] is “‡ (h-IntCL of <0.7 L/h/kg)”. In addition, the IC50 on TRKA [2] was over 2500 nM; in series [4], at most 300 nM. The “Selectivity TRKA/JH2 V617F” value with TRKA [3] is reported as “****** (selectivity of >12500-fold)”.

Consider `COc1nn(C)cc1-c1[nH]c2ncc3c(c2c1-c1ccc2c(cnn2C)c1)n([C@H]1CC[C@@H](CC#N)CC1)c(=O)n3C` [E, reference compound], for which the “Selectivity FLT3/JH2 V617F” value with FLT3 was “* (selectivity of ≤500-fold)”. In addition, in series [1], the h-IntCL entry is on record as “‡ ‡ ‡ (h-IntCL of >1 L/h/kg)”. The IC50 on TRKA [2] was in the range of 250 to 1250 nM; in series [4], 300 to 800 nM. For the same compound, the “Selectivity TRKA/JH2 V617F” value with TRKA [3] is given as “** (selectivity of >500-fold to ≤1500-fold)”.

Source of the values: US12084430B2, “Tricyclic urea compounds as JAK2 V617F inhibitors” (Incyte Corporation, priority 2022, dated 2024).
